Results from patent publication US6737383B1, “Herbicidal oxadiazolidines” (priority 1999, dated 2004).

Experiments:
soybean = assay: Test B pre/postemergence soybean; assay type: in vivo, Glycine max
Outline: (§1)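 Response is a visual 0-to-10 score relative to untreated plants, where 0 means no effect and 10 means complete control, taken twelve to sixteen days after application. Treatments went onto soil at planting and onto foliage of 1- to 4-leaf plants, using a surfactant-containing non-phytotoxic solvent.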

duck salad = assay: Test B flood test duck salad; assay type: in vivo, Heteranthera limosa
Outline: (§2)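 Plants were grown to the 2-leaf stage before treatment with test chemical, then held in a greenhouse for twelve to sixteen days. Injury was visually rated against untreated controls on a 0–10 scale, where 0 is no effect and 10 is complete control.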

surinam grass = assay: Test B pre/postemergence surinam grass; assay type: in vivo, Brachiaria decumbens
Outline: as §1

morningglory = assay: Test B pre/postemergence morningglory; assay type: in vivo, Ipomoea hederacea; settings: for Plant response rating, Morningglory: scale of 0 to 10 where 0 is no effect and 10 is complete control
Outline: as §1

velvetleaf = assay: Test B pre/postemergence velvetleaf; assay type: in vivo, Abutilon theophrasti; settings: for Plant response rating, Velvetleaf: scale of 0 to 10 where 0 is no effect and 10 is complete control
Outline: as §1

crabgrass = assay: Test B pre/postemergence crabgrass; assay type: in vivo, Digitaria sanguinalis
Outline: as §1

bamyardgrass = assay: Test B flood test barnyardgrass; assay type: in vivo, Echinochloa crus-galli
Outline: as §2

corn = assay: Test B pre/postemergence corn; assay type: in vivo, Zea mays
Outline: as §1

wild oat = assay: Test B pre/postemergence wild oat; assay type: in vivo, Avena fatua; settings: for Plant response rating, Wild oats: scale of 0 to 10 where 0 is no effect and 10 is complete control
Outline: as §1

giant foxtail = assay: Test B pre/postemergence giant foxtail; assay type: in vivo, Setaria faberii
Outline: as §1

cocklebur = assay: Test B pre/postemergence cocklebur; assay type: in vivo, Xanthium strumarium
Outline: as §1

rape = assay: Test B pre/postemergence rape; assay type: in vivo, Brassica napus; settings: for Plant response rating, Rape: scale of 0 to 10 where 0 is no effect and 10 is complete control
Outline: as §1

wheat = assay: Test B pre/postemergence wheat; assay type: in vivo, Triticum aestivum; settings: for Plant response rating, Wheat: scale of 0 to 10 where 0 is no effect and 10 is complete control
Outline: as §1

blackgrass = assay: Test B pre/postemergence blackgrass; assay type: in vivo, Alopecurus myosuroides
Outline: as §1

smallflower flatsedge = assay: Test B flood test smallflower flatsedge; assay type: in vivo, Cyperus difformis
Outline: as §2

bedstraw = assay: Test B pre/postemergence bedstraw; assay type: in vivo, Galium aparine; settings: Preemergence; for Plant response rating, Bedstraw: scale of 0 to 10 where 0 is no effect and 10 is complete control; for Bedstraw plant response rating: scale 0 to 10, 0 is no effect, 10 is complete control
Outline: as §1

[1] = Postemergence, Rate 250 g/ha, scale 0 to 10
[2] = Preemergence, Rate 125 g/ha, scale of 0 to 10 where 0 is no effect and 10 is complete control
[3] = Preemergence, Rate 250 g/ha, scale 0 to 10, 0 is no effect, 10 is complete control
[4] = Preemergence, Rate 500 g/ha, scale 0 to 10, 0 is no effect, 10 is complete control
[5] = Rate 62 g/ha, Postemergence, scale 0 to 10, 0 no effect, 10 complete control
[6] = Rate 125 g/ha, Postemergence, scale 0 to 10, 0 is no effect, 10 is complete control
[7] = Rate 62 g/ha, flood test species, Pre-emergence, visual evaluation after twelve to sixteen days
[8] = Rate 125 g/ha, under heading Pre-emergence, flood test species, visual evaluation after twelve to sixteen days
[9] = Rate 250 g/ha, Pre-emergence (flood test species), scale 0 to 10, 0 is no effect, 10 is complete control
[10] = Rate 500 g/ha, Pre-emergence, flood test species, scale 0 to 10 (0 no effect, 10 complete control)
[11] = Postemergence, Rate 500 g/ha, scale of 0 to 10 where 0 is no effect and 10 is complete control
[12] = Preemergence, Rate 62 g/ha, scale of 0 to 10 where 0 is no effect and 10 is complete control

CC(C)N(C(=O)n1oc(=O)n(COCC[Si](C)(C)C)c1=O)c1ccc(Cl)cc1 [Compound 467]
Soybean plant response rating (soybean; [1]): 0 | Plant response rating, Soybean (soybean; [2]): 0 | Soybean plant response rating (soybean; [3]): 0 | Soybean plant response rating (soybean; [4]): 0 | Soybean plant response rating (soybean; [5]): 0 | Soybean plant response rating (soybean; [6]): 0 | Plant response rating, Ducksalad (0 to 10 scale, 0 is no effect, 10 is complete control) (duck salad; [7]): 0 | Ducksalad plant response rating (0 to 10 scale, 0 is no effect, 10 is complete control) (duck salad; [8]): 0 | Ducksalad plant response rating (duck salad; [9]): 0 | Ducksalad plant response rating (duck salad; [10]): 0 | B. signalgrass plant response rating (surinam grass; Postemergence, Rate 250 g/ha, scale 0 to 10, 0 no effect, 10 complete control): 0 | B. signalgrass plant response rating (surinam grass; [11]): 0 | Plant response rating, B. signalgrass (surinam grass; [12]): 0 | Plant response rating, B. signalgrass (surinam grass; [2]): 0 | B. signalgrass plant response rating (surinam grass; [3]): 0 | B. signalgrass plant response rating (surinam grass; [4]): 2 | B. signalgrass plant response rating (surinam grass; [5]): 0 | B. signalgrass plant response rating (surinam grass; [6]): 0 | Morningglory plant response rating (morningglory; [1]): 7 | Plant response rating, Morningglory (morningglory; Preemergence, Rate 62 g/ha): 0 | Plant response rating, Morningglory (morningglory; Preemergence, Rate 125 g/ha): 0 | Morningglory plant response rating (morningglory; [3]): 0 | Morningglory plant response rating (morningglory; [4]): 0 | Morningglory plant response rating (morningglory; [5]): 3 | Morningglory plant response rating (morningglory; [6]): 7 | Velvetleaf plant response rating (velvetleaf; [1]): 0 | Plant response rating, Velvetleaf (velvetleaf; Preemergence, Rate 62 g/ha): 0 | Plant response rating, Velvetleaf (velvetleaf; Preemergence, Rate 125 g/ha): 0 | Velvetleaf plant response rating (velvetleaf; [3]): 0 | Velvetleaf plant response rating (velvetleaf; [4]): 1 | Velvetleaf plant response rating (velvetleaf; [5]): 0 | Velvetleaf plant response rating (velvetleaf; [6]): 0 | Crabgrass plant response rating (crabgrass; [1]): 0 | Crabgrass plant response rating (crabgrass; [11]): 6 | Plant response rating, Crabgrass (crabgrass; [12]): 5 | Plant response rating, Crabgrass (crabgrass; [2]): 6 | Crabgrass plant response rating (crabgrass; [3]): 6 | Crabgrass plant response rating (crabgrass; [4]): 8 | Crabgrass plant response rating (crabgrass; [5]): 0 | Crabgrass plant response rating (crabgrass; [6]): 0 | Plant response rating, Barnyardgrass (0 to 10 scale, 0 is no effect, 10 is complete control) (bamyardgrass; [7]): 0 | Barnyardgrass plant response rating (0 to 10 scale, 0 is no effect, 10 is complete control) (bamyardgrass; [8]): 0 | Barnyardgrass plant response rating (bamyardgrass; [9]): 0 | Barnyardgrass plant response rating (bamyardgrass; [10]): 0 | Corn plant response rating (corn; [1]): 0 | Corn plant response rating (corn; [11]): 0 | Plant response rating, Corn (corn; [12]): 0 | Plant response rating, Corn (corn; [2]): 0 | Corn plant response rating (corn; [3]): 0 | Corn plant response rating (corn; [4]): 0 | Corn plant response rating (corn; [5]): 0 | Corn plant response rating (corn; [6]): 0 | Wild oats plant response rating (wild oat; [1]): 2 | Plant response rating, Wild oats (wild oat; Preemergence, Rate 62 g/ha): 0 | Plant response rating, Wild oats (wild oat; Preemergence, Rate 125 g/ha): 0 | Wild oats plant response rating (wild oat; [3]): 0 | Wild oats plant response rating (wild oat; [4]): 0 | Wild oats plant response rating (wild oat; [5]): 0 | Wild oats plant response rating (wild oat; [6]): 0 | Giant foxtail plant response rating (giant foxtail; [1]): 2 | Giant foxtail plant response rating (giant foxtail; [11]): 4 | Plant response rating, Giant foxtail (giant foxtail; [12]): 0 | Plant response rating, Giant foxtail (giant foxtail; [2]): 7 | Giant foxtail plant response rating (giant foxtail; [3]): 9 | Giant foxtail plant response rating (giant foxtail; [4]): 9 | Giant foxtail plant response rating (giant foxtail; [5]): 0 | Giant foxtail plant response rating (giant foxtail; [6]): 0 | Cocklebur plant response rating (cocklebur; [1]): 0 | Cocklebur plant response rating (cocklebur; [11]): 5 | Plant response rating, Cocklebur (cocklebur; [12]): 2 | Plant response rating, Cocklebur (cocklebur; [2]): 4 | Cocklebur plant response rating (cocklebur; [3]): 6 | Cocklebur plant response rating (cocklebur; [4]): 6 | Cocklebur plant response rating (cocklebur; [5]): 0 | Cocklebur plant response rating (cocklebur; [6]): 0 | Rape plant response rating (rape; [1]): 4 | Plant response rating, Rape (rape; Preemergence, Rate 62 g/ha): 4 | Plant response rating, Rape (rape; Preemergence, Rate 125 g/ha): 7 | Rape plant response rating (rape; [3]): 7 | Rape plant response rating (rape; [4]): 7 | Rape plant response rating (rape; [5]): 0 | Rape plant response rating (rape; [6]): 0 | Wheat plant response rating (wheat; [1]): 0 | Plant response rating, Wheat (wheat; Preemergence, Rate 62 g/ha): 0 | Plant response rating, Wheat (wheat; Preemergence, Rate 125 g/ha): 0 | Wheat plant response rating (wheat; [3]): 0 | Wheat plant response rating (wheat; [4]): 0 | Wheat plant response rating (wheat; [5]): 0 | Wheat plant response rating (wheat; [6]): 0 | Blackgrass plant response rating (blackgrass; [1]): 0 | Blackgrass plant response rating (blackgrass; [11]): 7 | Plant response rating, Blackgrass (blackgrass; [12]): 0 | Plant response rating, Blackgrass (blackgrass; [2]): 2 | Blackgrass plant response rating (blackgrass; [3]): 2 | Blackgrass plant response rating (blackgrass; [4]): 2 | Blackgrass plant response rating (blackgrass; [5]): 0 | Blackgrass plant response rating (blackgrass; [6]): 0 | Plant response rating, S. Flatsedge (0 to 10 scale, 0 is no effect, 10 is complete control) (smallflower flatsedge; [7]): 0 | S. Flatsedge plant response rating (0 to 10 scale, 0 is no effect, 10 is complete control) (smallflower flatsedge; [8]): 0 | S. Flatsedge plant response rating (smallflower flatsedge; [9]): 0 | S. Flatsedge plant response rating (smallflower flatsedge; [10]): 0 | Plant response rating, Bedstraw (bedstraw; Rate 62 g/ha): 0 | Plant response rating, Bedstraw (bedstraw; Rate 125 g/ha): 0 | Bedstraw plant response rating (bedstraw; Rate 250 g/ha): 0 | Bedstraw plant response rating (bedstraw; Rate 500 g/ha): 0
